Experimental data reported in PubChem BioAssay (NCI).
Values joined by “and” are separate entries in the source; they are usually repeats but may differ in a detail not shown here. Equal entries are not always repeated.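 Test compounds were applied to cells in 96-well plates for 48 hours at 5 doses. GI50 = concentration required for 50% inhibition of growth. TGI: concentration producing complete growth inhibition.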

Columns and labels:
Assay in all cases: NCI anticancer screen, dose series, 48 h
NCI-H23 lung = test system: NCI-H23 lung
786-0 renal = test system: 786-0 renal
MDA-MB-435 = test system: MDA-MB-435
HT29 colon = test system: HT29 colon
LOX IMVI melanoma = test system: LOX IMVI melanoma
EKVX NSCLC = test system: EKVX NSCLC
TK-10 renal = test system: TK-10 renal
CCRF-CEM leukemia = test system: CCRF-CEM leukemia
MOLT-4 leukemia = test system: MOLT-4 leukemia
NCI/ADR-RES ovarian = test system: NCI/ADR-RES ovarian

Compound	GI50 (NCI-H23 lung)	TGI (NCI-H23 lung)	GI50 (786-0 renal)	TGI (786-0 renal) [µM]	GI50 (MDA-MB-435)	TGI (MDA-MB-435)	GI50 (HT29 colon)	TGI (HT29 colon) [µM]	GI50 (LOX IMVI melanoma)	TGI (LOX IMVI melanoma) [µM]	GI50 (EKVX NSCLC)	TGI (EKVX NSCLC) [µM]	GI50 (TK-10 renal) [µM]	TGI (TK-10 renal)	GI50 (CCRF-CEM leukemia)	TGI (CCRF-CEM leukemia) [µM]	GI50 (MOLT-4 leukemia)	TGI (MOLT-4 leukemia)	GI50 (NCI/ADR-RES ovarian)	TGI (NCI/ADR-RES ovarian) [µM]
CC1=C2[C@@H](CC1)[C@]1(C)O[C@@](C(C)C)(C[C@H]1OC(=O)CO)[C@H]2OC(=O)CCCc1ccccc1	11.3 µM	27.6 µM	13.1 µM	28.7	13.1 µM	26.2 µM	10.8 µM	26.1	5.88 µM	18.5	15 µM	30.8	18.6	32.8 µM	4.65 µM	34.7	3.66 µM	15.2 µM	3.87 µM	20
Cc1ccc(/C=N/NS(=O)(=O)c2ccccc2)cc1C		> 100 µM		> 100				> 100		> 100		> 100		> 100 µM		> 100		> 100 µM		
CC(C)CCCCCCCCCCCCC(=O)NCC(=O)NC1C(C)OC(Nc2ncnc3nc[nH]c23)C(O)C1O (configuration not stated)	0.00875 µM	0.172 µM	0.00182 µM	0.232			0.00453 µM		0.0002 µM		0.0251 µM			0.0096 µM and 0.0809 µM		0.223	0.00213 µM	0.00788 µM and 0.0323 µM		0.0716
CC1(C)CCc2c(c(N=Nc3ccccc3F)c3ccccc3c2O)O1	16.8 µM	58.6 µM	26.1 µM	60.3	> 100 µM	> 100 µM			20.9 µM	40.9	> 100 µM	> 100	68.2	> 100 µM	> 100 µM	> 100	> 100 µM	> 100 µM	20.1 µM	47.1
Cc1ccc2[nH]c(C(=O)NN3C(=O)C(C)SC34CCC(C)CC4)c(-c3ccccc3)c2c1 (configuration not stated)	15.2 µM	32 µM	19 µM	52.6	16.5 µM	35.4 µM	13.1 µM	29.3	18 µM	34.8	19.6 µM	56.1	14.2	29.6 µM	20.4 µM	79.6	7.86 µM	32.2 µM		
CC[O-].CC[O-].O=C([CH-]C(=O)c1ccccc1)CCCCCCC(=O)[CH-]C(=O)c1ccccc1.[Ti+4]	> 100 µM	> 100 µM	> 100 µM	> 100			> 100 µM	> 100	> 100 µM	> 100	> 100 µM	> 100	> 100	> 100 µM	> 100 µM	> 100	> 100 µM	> 100 µM		
O=[N+]([O-])c1cc(I)cc(/C=N/NS(=O)(=O)c2ccc(Cl)cc2)c1O		34.2 µM		42.9				48.6		36.5		83		74.4 µM		58.5		51.5 µM		
CCN(CCO)CCCC(C)Nc1ccnc2cc(Cl)ccc12 (configuration not stated)			> 100 µM	> 100	> 100 µM	> 100 µM	> 100 µM	> 100	> 100 µM	> 100	> 100 µM	> 100	> 100	> 100 µM	> 100 µM	> 100				
CC(=O)NCc1c(C(N)=O)ncn1Cc1ccccc1		> 100 µM		> 100				> 100		> 100		> 100		> 100 µM		> 100		> 100 µM		
C1C[OH+]CCNCC[OH+]CC[OH+]CCN1.N.[Cl-].[Pt+4]	27.1 µM	> 100 µM	> 100 µM	> 100			43.7 µM	> 100	33.2 µM	> 100			49.5	> 100 µM	53.6 µM	> 100	59.8 µM	> 100 µM		
O=C1NC2(CCCC2)C2CCCCC12O (configuration not stated)		> 100 µM		> 100				> 100		> 100		> 100		> 100 µM		> 100		> 100 µM		
CC(=O)OC1=C2CC[C@@H]3C(CC[C@@]4(C)C3CC[C@@H]4OC(C)=O)[C@@]2(C)CC(C#N)C1=O (some centres not stated)		> 100 µM		> 100				> 100		> 100		> 100		> 100 µM		53.1		51.3 µM		
COc1ccccc1NC(=O)C1=C(C)NC(C)=C(C(=O)Nc2ccccc2OC)C1c1ccccc1Cl		> 100 µM		> 100				> 100		> 100		> 100		> 100 µM		> 100		> 100 µM		
COc1ccc(C[C@]23CCC(=O)N2CCc2cc(OC)c(O)cc23)cc1O		> 100 µM		> 100				> 100		> 100		> 100		> 100 µM		> 100		> 100 µM		
COc1ccc(-c2oc3c(OC)c(OC)c(OC)c(O)c3c(=O)c2OC)cc1O	< 0.01 µM		< 0.01 µM	11.3				36.8			0.317 µM	> 100		51 µM		11.4		12.7 µM		
O=S1(=O)c2cc(S(=O)(=O)n3ccnc3)ccc2NC2=NCCCN21		> 100 µM		99.6				46.3		> 100		> 100		> 100 µM		73.3		> 100 µM		
COc1ccc2c(c1)C(=O)c1c-2c(N2CCN(C(=O)CCNCCNCCN)CC2)nc2ccccc12			2.51 µM	6.62	6.86 µM	30 µM	2.43 µM	4.88					18.4	42.1 µM	2.85 µM	7.93	1 µM	2.18 µM		
O=C(c1ccccc1)C1OC1C(=O)c1ccccc1 (configuration not stated)	2.33 µM	10.8 µM	4.35 µM	84.9	2.86 µM	> 100 µM	3.19 µM	13.2	2.75 µM	11.7	6.68 µM	> 100	1.86	8.37 µM					1.88 µM	> 100
CN(C)CCN(C)C(=O)c1cccc2cccc(C(=O)O)c12		> 100 µM		> 100				> 100		> 100		> 100		> 100 µM		> 100		> 100 µM		

Compound	GI50 (NCI-H23 lung)	TGI (NCI-H23 lung)	GI50 (786-0 renal)	TGI (786-0 renal) [µM]	GI50 (MDA-MB-435)	TGI (MDA-MB-435)	GI50 (HT29 colon)	TGI (HT29 colon) [µM]	GI50 (LOX IMVI melanoma)	TGI (LOX IMVI melanoma) [µM]	GI50 (EKVX NSCLC)	TGI (EKVX NSCLC) [µM]	GI50 (TK-10 renal) [µM]	TGI (TK-10 renal)	GI50 (CCRF-CEM leukemia)	TGI (CCRF-CEM leukemia) [µM]	GI50 (MOLT-4 leukemia)	TGI (MOLT-4 leukemia)	GI50 (NCI/ADR-RES ovarian)	TGI (NCI/ADR-RES ovarian) [µM]
O=C(C=Nc1ccccc1S)c1ccco1		15.6 µM	16.6 µM	31.8				37.7				30.2		33.4 µM		10.2		27.5 µM		
COc1cc(/C=C2\NC(=O)C3Cc4c(OC)c(C)c(OC)c(OC)c4C2N3C)c(OC)c(C)c1OC (configuration not stated)		> 100 µM		> 100				> 100		> 100		> 100		> 100 µM		> 100		> 100 µM		
CC(=O)[CH-]C(C)=O.CC(=O)[CH-]C(C)=O.[Cl-].[O]=[V]	14.2 µM	34.5 µM	20 µM	42.9					14.9 µM	44.5	30.3 µM	> 100	24.5	60.6 µM						
O=S(=O)(O)n1ccnc1 (tested in a mixture with another compound)		> 100 µM		> 100		> 100 µM		> 100		> 100		> 100		> 100 µM				> 100 µM		> 100
O=c1cc(-c2ccccc2)oc2c1ccc1ccccc12	32.6 µM	> 100 µM	27.9 µM	> 100	30 µM	> 100 µM	25.6 µM	> 100	21.9 µM	> 100			28.2	65 µM	22.8 µM	73.8	23.5 µM	51.5 µM	30.5 µM	> 100
O=C1c2cc3c(cc2-c2c1c1ccc(F)cc1c(=O)n2C[C@H](O)[C@H](O)[C@H](O)CO)OCO3	0.129 µM	0.482 µM	0.209 µM	21.6	0.174 µM	0.409 µM	0.142 µM	0.397			0.357 µM	4.63	0.248	0.873 µM	0.0479 µM	31.3			0.207 µM	2.14
CCCCC(OC(=O)c1ccc(N)cc1)C(=O)Nc1nc(CC(=O)OCC)cs1 (configuration not stated)			53.6 µM	> 100	35 µM	> 100 µM	36.7 µM	> 100	39 µM	> 100	38 µM	> 100	40	> 100 µM			35.8 µM	> 100 µM	33.9 µM	> 100
[Co].[O-]c1cccnc1C=Nc1ccccc1.[OH3+]	> 100 µM	> 100 µM	> 100 µM	> 100			> 100 µM	> 100	> 100 µM	> 100	> 100 µM	> 100	> 100	> 100 µM	> 100 µM	> 100	78.3 µM	> 100 µM		
CCOC(=O)c1c(-c2ccc(OC)c(O)c2)c(C#N)c(=S)n(C2OC(COC(C)=O)C(OC(C)=O)C(OC(C)=O)C2OC(C)=O)c1-c1ccccc1 (configuration not stated)	22.2 µM and > 100 µM	60.3 µM and > 100 µM	35.1 µM and > 100 µM	> 100	31.7 µM and 67.9 µM	91.6 µM and > 100 µM	36.7 µM and > 100 µM	> 100	34.8 µM and > 100 µM	> 100	45.4 µM and > 100 µM	> 100			47.2 µM and > 100 µM	> 100	38.3 µM and > 100 µM	> 100 µM	48.6 µM and > 100 µM	> 100
CCOC(=O)CNC(=O)OCc1ccccc1		> 100 µM		> 100				> 100		> 100				> 100 µM		> 100		> 100 µM		
FC(F)(F)c1nc(SCc2ccc(Cl)cc2)n[nH]1		> 100 µM		> 100		> 100 µM		> 100		> 100		> 100		> 100 µM				> 100 µM		> 100
O=C(O)CCSC(=O)Nc1cccc2ccccc12		> 100 µM		> 100				> 100		> 100		> 100		> 100 µM		> 100		> 100 µM		
CN=C1CN=C(OP(=O)(N2CCOCC2)N2CCOCC2)c2cc(Cl)ccc2N1		> 100 µM		> 100				> 100		> 100		> 100		> 100 µM		> 100		> 100 µM		
O=C(CC1(O)C(=O)Nc2ccccc21)c1ccc(Cl)cc1Cl (configuration not stated)		> 100 µM		> 100				> 100		> 100		> 100		> 100 µM				> 100 µM		
O=C(CCCC(=O)N/N=C/c1cc(Cl)ccc1O)N/N=C\c1cc(Cl)ccc1O	11.9 µM	> 100 µM	3.59 µM	> 100	6.87 µM	> 100 µM	21.2 µM	> 100	1.69 µM	25.4					1.25 µM	34.3	2.52 µM	23.2 µM	3.44 µM	> 100
CO/C=C(\Br)c1ccc2c(c1)OCO2		> 100 µM		> 100								> 100		> 100 µM		> 100		> 100 µM		
COc1ccc(C2=NN(C(C)=O)C(c3ccc(Oc4ccnc5cc(Cl)ccc45)c(OC)c3)C2)cc1 (configuration not stated)	11.9 µM	> 100 µM	4.52 µM	26.8	> 100 µM	> 100 µM					51.7 µM	> 100			> 100 µM	> 100	> 100 µM	> 100 µM		
C/C(=C\C(C[C@](C)(O)C(O)CCC#C[Si](C)(C)C)S(=O)(=O)c1ccccc1)CC/C=C/CO[Si](C)(C)C(C)(C)C (some centres not stated)		41.9 µM		31.5				12.7		28.7		38.4		37.7 µM		28.9		23.1 µM		
CCC[CH2][Sn]1([CH2]CCC)[O]CC[S]1	0.398 µM	1.82 µM	0.516 µM	1.7			1.27 µM	2.81	0.459 µM	1.7	0.749 µM	2.1	0.508	1.39 µM	0.177 µM	0.814	0.37 µM	2.4 µM		
